# Measurements reported in PMC11284788, “NN1213 – A Potent, Long-Acting, and Selective Analog of Human Amylin” (Journal of Medicinal Chemistry, 2024).
# Numbered stars: 1 amine (or outer) side, 2 acyl side, 3 side chain; on linkers, the order of the positions; unused ones are H or OH. Bridge positions count the residues as written; N and C are the ends. Side chains are listed from the residue outwards. Peptide text beside a SMILES is read from it. * marks the point of attachment. C20 diacid = O=C(O)CCCCCCCCCCCCCCCCCCC(=O)*; γGlu = O=C(O)[C@H](CCC(=O)[*:2])N[*:1]
# Key:
# hAMY3R [1] = target: T1, hAMY3R (Homo sapiens, UniProt O60896+P30988); assay: scintillation proximity binding assay, hAMY3R membranes; design: expressed in transfected cells; host or cells: BHK tk-ts 13, transient co-transfection; membranes for the SPA, whole cells for the species-specific assays; conditions: for ratio hCTR/hAMY3R: ratio of binding IC50 values
# T1 sequence (P30988 25-474): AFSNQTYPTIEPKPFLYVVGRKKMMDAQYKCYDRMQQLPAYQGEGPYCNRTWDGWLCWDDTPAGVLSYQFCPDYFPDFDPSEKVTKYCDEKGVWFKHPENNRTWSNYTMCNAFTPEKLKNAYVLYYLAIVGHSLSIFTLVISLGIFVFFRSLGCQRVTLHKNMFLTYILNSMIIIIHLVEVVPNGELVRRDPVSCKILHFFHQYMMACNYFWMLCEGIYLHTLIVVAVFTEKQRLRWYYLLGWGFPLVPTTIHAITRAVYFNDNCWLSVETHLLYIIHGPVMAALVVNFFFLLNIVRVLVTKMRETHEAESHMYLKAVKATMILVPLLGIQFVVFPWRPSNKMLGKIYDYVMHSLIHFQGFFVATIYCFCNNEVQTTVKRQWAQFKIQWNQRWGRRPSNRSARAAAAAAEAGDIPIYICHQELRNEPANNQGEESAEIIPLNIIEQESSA
# T1 sequence (O60896 24-148 partner): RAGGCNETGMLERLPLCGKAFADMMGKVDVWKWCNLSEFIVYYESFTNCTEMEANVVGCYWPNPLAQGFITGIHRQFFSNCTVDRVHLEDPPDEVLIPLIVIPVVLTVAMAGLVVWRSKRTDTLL
# rAMY3R = target: T2, rAMY3R (Rattus norvegicus, UniProt P32214+Q9JJ73); assay: scintillation proximity binding assay, rAMY3R membranes; design: expressed in transfected cells; host or cells: BHK tk-ts 13, transient co-transfection (FuGENE 6); conditions: for ratio rCTR/rAMY3R: ratio of binding IC50 values
# T2 sequence (P32214 25-479 isoform P32214-2 limits assumed): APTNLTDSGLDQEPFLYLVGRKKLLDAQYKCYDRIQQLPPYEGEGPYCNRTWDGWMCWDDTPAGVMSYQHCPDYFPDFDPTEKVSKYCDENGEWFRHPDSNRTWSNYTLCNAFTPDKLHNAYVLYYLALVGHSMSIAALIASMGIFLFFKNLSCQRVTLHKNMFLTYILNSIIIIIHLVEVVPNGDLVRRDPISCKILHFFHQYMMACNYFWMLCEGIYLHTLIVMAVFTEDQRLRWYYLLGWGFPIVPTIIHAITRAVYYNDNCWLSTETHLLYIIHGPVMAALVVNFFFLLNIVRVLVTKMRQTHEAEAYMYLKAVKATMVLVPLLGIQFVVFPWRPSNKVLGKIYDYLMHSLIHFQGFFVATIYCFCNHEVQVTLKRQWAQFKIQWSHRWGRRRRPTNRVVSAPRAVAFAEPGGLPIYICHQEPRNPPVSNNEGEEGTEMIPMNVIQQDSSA
# T2 sequence (Q9JJ73 23-147 partner): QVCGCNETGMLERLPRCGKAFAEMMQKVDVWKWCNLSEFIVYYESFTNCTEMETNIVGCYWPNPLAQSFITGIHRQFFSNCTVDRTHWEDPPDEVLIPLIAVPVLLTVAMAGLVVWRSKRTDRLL
# hAMY3R [2] = target: T1, hAMY3R; assay: cAMP-responsive element luciferase reporter assay, human AMY3R; format: cell-based; design: expressed in transfected cells; conditions: for ratio hCTR/hAMY3R: ratio of luciferase EC50 values
# [3] = SPA binding assay, Tables S13 and S15
hAMY3R pIC50 (hAMY3R [1]; [3]),ratio hCTR/hAMY3R (hAMY3R [1]),rAMY3R pIC50 (rAMY3R; [3]),ratio rCTR/rAMY3R (rAMY3R),"hAMY3R pEC50 (hAMY3R [2]; luciferase (human receptor assay), Tables S12 and S14)",ratio hCTR/hAMY3R (hAMY3R [2]),Structure (SMILES)
9.46,45,9.69,84,9.65,6,CC[C@H](C)[C@H](NC(=O)[C@H](C)NC(=O)CNC(=O)[C@H](Cc1ccccc1)NC(=O)[C@H](CC(N)=O)NC(=O)[C@@H]1CCCN1C(=O)[C@H](CO)NC(=O)[C@H](CO)NC(=O)[C@H](Cc1c[nH]cn1)NC(=O)[C@H](CCCNC(=N)N)NC(=O)[C@H](CC(C)C)NC(=O)[C@H](Cc1ccccc1)NC(=O)[C@H](CC(N)=O)NC(=O)[C@H](C)NC(=O)[C@H](CC(C)C)NC(=O)[C@H](CCCNC(=N)N)NC(=O)[C@H](CCC(N)=O)NC(=O)[C@@H](NC(=O)[C@H](C)NC(=O)[C@@H]1CSSC[C@H](NC(=O)[C@H](CCCNC(=N)N)NC(=O)CNC(=O)CC[C@H](NC(=O)CCCCCCCCCCCCCCCCCCC(=O)O)C(=O)O)C(=O)N[C@@H](CC(N)=O)C(=O)N[C@@H]([C@@H](C)O)C(=O)N[C@@H](C)C(=O)N[C@@H]([C@@H](C)O)C(=O)N1)[C@@H](C)O)C(=O)N1CCC[C@H]1C(=O)N[C@@H](CO)C(=O)N[C@@H](CO)C(=O)N[C@H](C(=O)N[C@@H](CC(N)=O)C(=O)N[C@H](C(=O)NCC(=O)N[C@@H](CO)C(=O)N[C@@H](Cc1c[nH]cn1)C(=O)N[C@H](C(=O)N[C@@H](Cc1ccc(O)cc1)C(N)=O)[C@@H](C)O)C(C)C)[C@@H](C)O [Peptide 19] ({C20 diacid-γGlu}-GRCNTATCATQRLANFLRHSSPNFGAIPSSTNVGSHTY-NH2; disulfide 3-8)
–,31,–,111,–,15,CC[C@H](C)[C@H](NC(=O)[C@H](C)NC(=O)CNC(=O)[C@H](Cc1ccccc1)NC(=O)[C@H](CC(N)=O)NC(=O)[C@@H]1CCCN1C(=O)[C@H](CO)NC(=O)[C@H](CO)NC(=O)[C@H](Cc1c[nH]cn1)NC(=O)[C@H](CCCNC(=N)N)NC(=O)[C@H](CC(C)C)NC(=O)[C@H](Cc1ccccc1)NC(=O)[C@H](CCC(=O)O)NC(=O)[C@H](C)NC(=O)[C@H](CC(C)C)NC(=O)[C@H](CCCNC(=N)N)NC(=O)[C@H](CCC(N)=O)NC(=O)[C@@H](NC(=O)[C@H](C)NC(=O)[C@@H]1CSSC[C@H](NC(=O)[C@@H](N)CCCCNC(=O)CC[C@H](NC(=O)CCCCCCCCCCCCCCCCCCC(=O)O)C(=O)O)C(=O)N[C@@H](CC(N)=O)C(=O)N[C@@H]([C@@H](C)O)C(=O)N[C@@H](C)C(=O)N[C@@H]([C@@H](C)O)C(=O)N1)[C@@H](C)O)C(=O)N1CCC[C@H]1C(=O)N[C@@H](CO)C(=O)N[C@@H](CO)C(=O)N[C@H](C(=O)N[C@@H](CC(N)=O)C(=O)N[C@H](C(=O)NCC(=O)N[C@@H](CO)C(=O)N[C@@H](CCCNC(=N)N)C(=O)N[C@H](C(=O)N[C@@H](Cc1ccc(O)cc1)C(N)=O)[C@@H](C)O)C(C)C)[C@@H](C)O [Peptide 20] (H-K([γGlu-C20 diacid])CNTATCATQRLAEFLRHSSPNFGAIPSSTNVGSRTY-NH2; disulfide 2-7)
